We go through 7 compounds from patent US10561681B2, “Antimetastatic 2H-selenopheno[3,2-h]chromenes, synthesis thereof, and methods of using same agents” (Latvian Institute of Organic Synthesis, priority 2016, dated 2020).

Common to all, as to assay type: cell-based
Data set [1] has as its system A549 (human lung carcinoma). The experiment in a line: In vitro cytotoxicity, MTT test. Conditions: Homo sapiens, A549, 72 h, read-out: Cytotoxicity IC50, A549. On the procedure: (§1) Anticancer activity of selenopheno[h]chromenes was tested in vitro using cytotoxicity assay. […] About 2-9·10^4 cells/mL (depending on line nature) were placed in 96-well plates immediately after compounds were added to the wells. Untreated cells were used as a control. The plates were incubated for 72 h, 37° C., 5% CO2. The number of surviving cells was determined using 3-(4,5-dimethylthiazol-2-yl)-2,5-diphenyltetrazolinium bromide (MTT). MTT-test: after incubating culture medium was removed and 200 μL fresh medium with 10 mM HEPES was added in each well of the plate, than 20 μL MTT (2 mg/mL in HBSS) was added. After incubation (3 hr, 37° C., 5% CO2), the medium with MTT was removed and 200 μL DMSO were added at once to each sample. The samples were tested at 540 nm on Anthos HT II photometer.

The test system of data set [2] is MES-SA (human uterus sarcoma). The experiment in a line: In vitro cytotoxicity, MTT test. Particulars: 72 h, read-out: Cytotoxicity IC50, MES-SA. On the procedure:
as §1

In data set [3] the test system is HepG2 (human hepatocellular carcinoma). The experiment in a line: In vitro cytotoxicity, MTT test. Particulars: read-out: Cytotoxicity IC50, HepG2. On the procedure:
as §1

Data set [4] relates to HT-1080 (human fibrosarcoma). The experiment in a line: In vitro cytotoxicity, MTT test. Particulars: read-out: Cytotoxicity IC50, HT-1080. As for the experimental part:
as §1

Data set [5] has as its system MCF-7 (human breast adenocarcinoma, estrogen-positive). The experiment in a line: In vitro cytotoxicity, MTT test. Particulars: read-out: Cytotoxicity IC50, MCF-7. As for the experimental part: as §1
The subject of a further data set is CCL-8 (mouse sarcoma). The experiment in a line: In vitro cytotoxicity, MTT test. Particulars: 72 h, read-out: Cytotoxicity IC50, CCL-8. On the procedure: as §1
The subject of a further data set is MG-22A (mouse hepatoma). The experiment in a line: In vitro cytotoxicity, MTT test. Conditions: 72 h, read-out: Cytotoxicity IC50, MG-22A. As for the experimental part: as §1
Data set [6] deals with MDA-MB-435s (human melanoma). The experiment in a line: In vitro cytotoxicity, MTT test. Particulars: 72 h, read-out: Cytotoxicity IC50, MDA-MB-435s. On the procedure: as §1
Data set [7] relates to SH-SY5Y (human neuroblastoma). The experiment in a line: In vitro cytotoxicity, MTT test. Particulars: Homo sapiens, SH-SY5Y, 72 h, read-out: Cytotoxicity IC50, SHSY5Y. As for the experimental part: as §1
Data set [8] can be described thus: Basal cytotoxicity test, Neutral Red Uptake (NRU) assay. Particulars: for LD50 at 24 h: mouse, po, acute oral LD50 calculated from 3T3 NRU IC50 by regression formula, read-out: Basal cytotoxicity Estimated* LD50; for IC50 at 24 h: normal mouse embryo fibroblasts, read-out: Cytotoxicity IC50, 3T3. On the procedure:
In parallel, the borderline concentration relevant to the highest tolerated dose has been determined for each compound using the NIH 3T3 (mouse embryo fibroblasts) cell line and the basal cytotoxicity obtained has then been used to predict the starting doses for in vivo acute oral LD50 values in rodents.
the Neutral Red Uptake (NRU) assay was performed according to the standard protocol of Stokes modified by the NICEATM-ECVAM validation study. The NRU cytotoxicity assay procedure is based on the ability of viable cells to incorporate and bind Neutral Red, a supravitally dye. Balb/c 3T3 (Mouse Swiss Albino embryo fibroblast) cells (9000 cells/well) were placed into 96-well plates for 24 h in Dulbecco's modified Eagle's (DMEM) medium containing 5% fetal bovine serum. The cells were then exposed to the test compounds over a range of […] concentrations (1000, 316, 100, 31, 10, 3, 1 μg/ml) for 24 h. Untreated cells were used as a control. After 24 h, the medium was removed from all plates. Then, 250 μL of Neutral Red solution were added (0.05 mg/mL NR in DMEM 24 h pre-incubated at 37° C. and then filtered before use through 0.22-μm syringe filter). Plates were incubated for 3 h and then cells were washed three times with PBS. The dye within viable cells was released by extraction with a mixture of acetic acid, ethanol and water (1:50:49). Absorbance of Neutral Red was measured using a spectrophotometer multiplate reader (TECAN, Infinite M1000) at 540 nm. The percentage of living cells was calculated using the formula: OD (treated cells)*100/OD (control cells). The IC50 values were calculated using the programme Graph Pad Prism® 3.0.
Data from the in vitro tests were used for estimating the starting dose for acute oral systemic toxicity tests in rodents. […] The value is recalculated to mg/kg and compounds are evaluated in accordance with four toxicity categories: category 1: LD50≤5 mg/kg (highly toxic); category 2: 5<LD50≤50 mg/kg (moderately toxic); category 3: 50<LD50≤300 mg/kg (slightly toxic); category 4: 300<LD50≤2 000 mg/kg (practically non-toxic).

Another data set relates to malignant tumor cells. The experiment in a line: In vitro cytotoxicity on monolayer tumor cell lines (panel, summary in words). Conditions: summary of Table 1. On the procedure: Anticancer activity of selenopheno[h]chromenes was tested in vitro using cytotoxicity assay. Thus, monolayer tumor cell lines MDA-MB-435s (human melanoma), MCF-7 (human breast adenocarcinoma, estrogen-positive), MES-SA (human uterus sarcoma), HT-1080 (human fibrosarcoma), A549 (human lung carcinoma), SH-SY5Y (human neuroblastoma), CCL-8 (mouse sarcoma), MG-22A (mouse hepatoma), and HepG2 (human hepatocellular carcinoma) were cultured in standard medium DMEM (Dulbecco's modified Eagle's medium) (“Sigma”) supplemented with 10% fetal bovine serum (“Sigma”). About 2-9·10^4 cells/mL (depending on line nature) were placed in 96-well plates immediately after compounds were added to the wells. Untreated cells were used as a control. The plates were incubated for 72 h, 37° C., 5% CO2. The number of surviving cells was determined using 3-(4,5-dimethylthiazol-2-yl)-2,5-diphenyltetrazolinium bromide (MTT). MTT-test: after incubating culture medium was removed and 200 μL fresh medium with 10 mM HEPES was added in each well of the plate, than 20 μL MTT (2 mg/mL in HBSS) was added. After incubation (3 hr, 37° C., 5% CO2), the medium with MTT was removed and 200 μL DMSO were added at once to each sample. The samples were tested at 540 nm on Anthos HT II photometer.

Each structure is given as a SMILES string. Where “and” joins values, the source holds several entries; their conditions need not be identical. Equal values may be shown once. Read-outs that look alike come from different tables or passages of the source.

As for `Cl.O=C(O)c1cc2ccc3c(Br)c(CN4CCOCC4)[se]c3c2oc1=O` [Compound I-14, 7-Bromo-2-oxo-8-(morpholin-1-ylmethyl)-2H-selenopheno[3,2-h]chromene-3-carboxylic acid hydrochloride], the IC50 in data set [1] was found to be 51 ± 8 µM; in [2], 65 ± 6 µM; in data set [3] (HepG2, 72 h) it was 106 ± 9 µM; in data set [4] (HT-1080, 72 h), 100 ± 6 µM; in [5] (MCF7, 72 h), 95 ± 9 µM; in the data set on CCL-8 (mouse sarcoma) it was 79 ± 9 µM. Also, the IC50 with MG-22A (mouse hepatoma) is 59 ± 2 µM; in data set [6], 156 ± 9 µM; in data set [7], 35 ± 9 µM. Also, in [8], the median lethal dose (LD50) at 24 h is 1320 mg/kg and 2600 µmol/kg. Also, in data set [8], the IC50 at 24 h is 43 ± 2 µM. Besides, in the data set with malignant tumor cells, the “Cytotoxicity on cancer cell lines” value was “remained cytotoxicity on cancer cell lines”.

Turning to `COC(=O)c1cc2ccc3c(Br)c(C(C)(C)O)[se]c3c2oc1=O` [Compound I-1, Methyl 7-bromo-8-(2-hydroxypropan-2-yl)-2-oxo-2H-selenopheno[3,2-h]chromene-3-carboxylate], the IC50 in data set [1] (MTT, 72 h) is 196 ± 9 µM; in [2] (MTT), 95 ± 9 µM; in data set [3] (HepG2, MTT, 72 h), > 117 µM; in [4] (HT-1080, MTT, 72 h), 225 ± 11 µM; in data set [5] (MCF7, MTT, 72 h), 221 ± 13 µM; in the data set on CCL-8 (mouse sarcoma) (MTT), > 225 µM. In addition, the half-inhibitory concentration (IC50) is > 122 µM in the data set with MG-22A (mouse hepatoma) (MTT), 95 ± 8 µM in data set [6] (MTT) and 32 µM in data set [7] (MTT). Further, in [8], the LD50 at 24 h was > 6000 µmol/kg and > 2660 mg/kg. In addition, in [8], the IC50 at 24 h worked out at 225 ± 11 µM.

As for `COCCN(CCOC)C(=O)c1cc2ccc3c(Br)c(C4=CCCCC4)[se]c3c2oc1=O` [Compound I-21, 7-Bromo-8-(cyclohex-1-en-1-yl)-N,N-bis(2-methoxyethyl)-2-oxo-2H-selenopheno[3,2-h]chromene-3-carboxamide], the IC50 in [1] (MTT, 72 h) was 61 ± 6 µM; in data set [2] (MTT) it was 73 ± 3 µM; in [3] (HepG2, MTT, 72 h) it was 51 ± 7 µM; in data set [4] (HT-1080, MTT, 72 h), 51 ± 1 µM; in data set [5] (MCF7, MTT, 72 h) it was 92 ± 12 µM; with CCL-8 (mouse sarcoma) (MTT), 100 ± 8 µM. The concentration for half-maximal inhibition (IC50) in the data set on MG-22A (mouse hepatoma) (MTT) is 46 ± 6 µM; in [6] (MTT), 76 ± 4 µM; in data set [7] (MTT) it was 139 ± 6 µM. Besides, in data set [8], the LD50 at 24 h was 700 µmol/kg and 384 mg/kg. The IC50 at 24 h in data set [8] came out at 131 ± 7 µM.

For the compound `COC(=O)c1cc2ccc3c(Br)c(CN4CCCCC4)[se]c3c2oc1=O` [Compound I-8, Methyl 7-bromo-2-oxo-8-(piperidin-1-ylmethyl)-2H-selenopheno[3,2-h]chromene-3-carboxylate], the IC50 in [1] (MTT, 72 h) was 115 ± 8 µM; in [2] (MTT), > 117 µM; in [3] (HepG2, MTT, 72 h) it was 181 ± 9 µM; in data set [4] (HT-1080, MTT, 72 h) it was > 192 µM; in data set [5] (MCF7, MTT, 72 h), 165 ± 5 µM; with CCL-8 (mouse sarcoma) (MTT) it was > 122 µM. In addition, the IC50 in the data set on MG-22A (mouse hepatoma) (MTT) is 46 ± 3 µM; in [6] (MTT), > 192 µM; in data set [7] (MTT) it was > 192 µM. The LD50 at 24 h in data set [8] is > 3900 µmol/kg and > 2000 mg/kg. In [8], the IC50 at 24 h is 54 ± 3 µM.

As for `COC1(c2[se]c3c(ccc4cc(C(=O)O)c(=O)oc43)c2Br)CCCCC1` [Compound I-12, 7-Bromo-8-(1-methoxycyclohexyl)-2-oxo-2H-selenopheno[3,2-h]chromene-3-carboxylic acid], the IC50 was 61 ± 1 µM in [1] (MTT, 72 h); > 206 µM in [2] (MTT); 97 ± 7 µM in [3] (HepG2, MTT, 72 h); 51 ± 2 µM in data set [4] (HT-1080, MTT, 72 h); 141 ± 10 µM in data set [5] (MCF7, MTT, 72 h); 134 ± 6 µM in the data set with CCL-8 (mouse sarcoma). The concentration for half-maximal inhibition (IC50) is > 206 µM with MG-22A (mouse hepatoma) (MTT), 127 ± 12 µM in data set [6] (MTT) and 193 ± 2 µM in [7] (MTT). Moreover, in data set [8], the LD50 at 24 h is 300 µmol/kg and 134 mg/kg. Further, the IC50 at 24 h in data set [8] came out at 213 ± 7 µM.

Turning to `O=C(c1cc2ccc3c(Br)c(C4=CCCCC4)[se]c3c2oc1=O)N1CCOCC1` [Compound I-20, 7-Bromo-8-(cyclohex-1-en-1-yl)-3-(morpholine-1-carbonyl)-2H-selenopheno[3,2-h]chromen-2-one], the IC50 in [1] (MTT, 72 h) is 38 ± 5 µM; in data set [2] (MTT), 61 ± 4 µM; in data set [3] (HepG2, MTT, 72 h), 63 ± 6 µM; in data set [4] (HT-1080, MTT, 72 h) it was 92 ± 12 µM; in data set [5] (MCF7, MTT, 72 h) it was 81 ± 7 µM; in the data set on CCL-8 (mouse sarcoma) (MTT), 126 ± 4 µM. For the same compound, the figures for the IC50 (in the data set with MG-22A (mouse hepatoma) (MTT); in data set [6] (MTT); in data set [7] (MTT)) were 117 ± 7 µM, 13 ± 1 µM and > 117 µM, respectively. Further, the 50% lethal dose (LD50) at 24 h in data set [8] was 3000 µmol/kg and 1600 mg/kg. Further, the IC50 at 24 h in data set [8] is > 192 µM.

Take `COC1(c2[se]c3c(ccc4cc(C(=O)O[C@H]5CC[C@@]6(C)C(=CC[C@H]7[C@@H]8CC[C@H]([C@H](C)CCCC(C)C)[C@@]8(C)CC[C@@H]76)C5)c(=O)oc43)c2Br)CCCCC1` [Compound I-18, (3S,8S,9S,10R,13R,14S,17R)-10,13-Dimethyl-17-((R)-6-methylheptan-2-yl)-2,3,4,7,8,9,10,11,12,13,14,15,16,17-tetradecahydro-1H-cyclopenta[a]phenanthren-3-yl-7-bromo-8-(1-methoxycyclohexyl)-2-oxo-2H-selenopheno[3,2-h]chromene-3-carboxylate]: the IC50 in data set [1] (MTT, 72 h) is > 117 µM; in [2] (MTT), > 117 µM; in data set [3] (HepG2, MTT, 72 h), > 117 µM; in [4] (HT-1080, MTT, 72 h), > 117 µM; in data set [5] (MCF7, MTT, 72 h), > 117 µM; in the data set with CCL-8 (mouse sarcoma) (MTT), > 117 µM. Moreover, the IC50 (in the data set on MG-22A (mouse hepatoma) (MTT); in data set [6] (MTT); in data set [7] (MTT)) was > 117 µM in each case. In addition, in data set [8], the LD50 at 24 h was 3700 µmol/kg and 3190 mg/kg. The IC50 at 24 h in data set [8] is > 117 µM.
